Patent US5723631A, “Coumarin derivatives as retroviral inhibitors” (SmithKline Beecham Corporation, priority 1995, dated 1998)
Where two headings read alike, the source gives them in different places.

Experiments:
[1] = target: T1, HIV reverse transcriptase (Human immunodeficiency virus type 1 group M subtype B, UniProt P03366); assay: HIV reverse transcriptase inhibition (TCA precipitation assay / scintillation proximity assay); assay type: biochemical
T1 construct: Recombinant HIV reverse transcriptase; made in house
Procedure: 5. Reverse Transcriptase Activity
RT inhibition was determined by a TCA precipitation assay as follows:
TCA-precipitation assay for HIV reverse transcriptase.
A heteropolymeric primer template was prepared by hybridizing a 691 nucleotide RNA molecule derived from the gag region of HIV [(+)-GAG^691, prepared as described in Mizrahi, V., Biochemistry, 28:9088-9094 (1989)], to a synthetic oligodeoxynucleotide (sequence: 5'-[…]-3'). The primer template (10 nM) was incubated in reaction buffer (50 mM Tris-HCl, pH 7.8, 80 mM KCl, 6 mM MgCl2, 10 mM DTT, 0.01 mg/ml BSA) with inhibitor, 10 μM dGTP, 10 μM dATP, and 28 μCi/ml of [3H]TYP (Amersham). Recombinant HIV reverse transcriptase (prepared as described in Mizrahi, et al., Arch. Biochem. Biophys., 273: 347-358, (1989)) was added to a concentration of 2-8 nM, and the reaction was incubated for 15 min at 37° C. (total reaction volume, 50 μL). The reaction was terminated with 50 μL of 20% TCA in 100 mM sodium pyrophosphate (ice cold) and chilled on ice for 15-30 min. The reaction mixture was filtered through glass fiber filters using a cell harvester, and the radioactivity that adhered to the filter was quantified using an LKB betaplate counter.
Scintillation proximity assay for HIV reverse tanscriptase.
HIV reverse transcriptase SPA enzyme assay system kits were obtained from Amersham (item number NK8972) and used as described in the package insert. Briefly, 10 μL of primer-template as supplied in the kit was added to 70 μL of dNTP/[3H]TTP solution. Ten μL of the inhibitor to be tested was added, followed by recombinant HIV RT (prepared as above) to a concentration of 2 nM. The reaction mixture was incubated for 10 min at room temperature and then terminated with 40 μL of 0.5M EDTA. Ten μL of streptavidin-SPA beads were added to each tube and the incorporated radioactivity was measured in an LKB betaplate counter.

[2] = system: human immunodeficiency virus-1 reverse transcriptase (HIV-1 RT); conditions: literature, Kashman et al. 1992; cited from earlier work
[3] = Cellular cytotoxicity in Molt4 cells; assay type: cell-based; conditions: human, Measured via XTT
Procedure: Cytotoxicity was tested with the CD4+cell line, Molt4. The compounds of the present invention were dissolved in DMSO in order to maximize solubility and provide a common solvent system. […] Cytotoxicity was measured as the inhibition of ^3 H-thymidine incorporation into the host cell's genome after exposure to the compounds of the present invention.

[4] = target: T2, HIV RT in which amino acid #181 was changed from tyrosine to cysteine (Human immunodeficiency virus type 1 BH10, UniProt P03366, Y780C); assay: Inhibition of TIBO-resistant mutant HIV RT, amino acid #181 tyrosine to cysteine; assay type: biochemical; conditions: Tyr181 to cysteine mutant
T2 construct: wild type recombinant per Mizrahi 1989

[5] = target: T3, HIV RT in which amino acid #181 was changed from tyrosine to isoleucine (Human immunodeficiency virus type 1 BH10, UniProt P03366, Y780I); assay: Inhibition of TIBO-resistant mutant HIV RT, amino acid #181 tyrosine to isoleucine; assay type: biochemical; conditions: Tyr181 to isoleucine mutant
T3 construct: wild type recombinant per Mizrahi 1989

[6] = system: HIV-1 (IIIB Stock); assay: HIV-1 infectivity inhibition assay (Molt4 cells); assay type: cell-based; conditions: for IC50: read-out: IC50 (50% Inhibitory concentration for cytopathicity by HIV); for Selective Index (Cytotoxycity/IC50 ratio): cytotoxicity/IC50 ratio, 10080 min
Procedure: 6. HIV-1 Infectivity Inhibition Assay
In addition, the compounds of the present invention were assayed via a virus neutralization, or HIV infectivity assay as follows:
Bulk Infection of Molt4 Cells.
Bulk infection is used to overcome variations inherent in individual well infections. Sufficient cells and diluted virus stock for an experiment are mixed together in a T-75 flask (Corning) so that the following ratio per well of virus and cells is maintained: 100 μl containing 45 TCID50 of virus (IIIB Stock) mixed with 100 μl of Molt4 cells (3×10^4 cells/well or 3×10^5 /ml). Virus is allowed to adsorb for 90 min. at 37° C. in CO2 incubator. […] of cell/virus mixture is then aliquoted into individual wells of a 24-well plate.
Appropriate 1/200 volumes of inhibitor dilutions at 200X final concentrations in 100% DMSO are added [i.e., to the 497.5 μl of virus infected cells, 2.5 μl of inhibitor dilution of 100% DMSO or 100% DMSO alone (for virus controls) is carefully added to appropriate wells]. Dilution series are generally 5-fold dilutions starting from 50 μg/ml.
Cultures are fed with RPMI 1640+20% FBS containing 1× concentration of inhibitor series (i.e., starting concentrations present at beginning of experiment) at the following times and volumes:
(Final volume in each well=1.5 ml)
Culture supernatants are harvested at 7 days post infection. Generally 90 μl of culture medium is transferred into a 96-well culture plate containing 10 μl 5% Triton X-100 in PBS. The plate is sealed, wiped with gauze saturated with 70% ethanol+detergent and stored at -80° C. until Micro RTs or p24 ELISAs are done. The results of HIV infectivity,inhibition is presented below:
^2 50% Inhibitory concentration for cytopathicity by HIV

[7] = Compounds 22 and 23, Example 7, read-out: Reverse Transcriptase Activity: IC50
[8] = recombinant HIV RT, RT inhibition results table of Example 5, read-out: IC50
[9] = Human immunodeficiency virus 1, IIIB, MOLT-4, 168 h

Row | Compound | IC50 [1, 8] [µM] | CC50 [3] [µM] | other results
1 | CCCc1cc(=O)oc2c3c(c4c(c12)OC(C)(C)C=C4)O[C@H](C)[C@@H](C)[C@@H]3O (relative stereo) [(±)-20, (±)-Calanolide A] | – | – | HIV-1 RT-inhibitory potency compared with natural calanolide A (in words) ([1]; synthetic racemate vs data reported for natural calanolide A): in full agreement with the data reported for natural calanolide A
2 | CCCc1cc(=O)oc2c3c(c4c(c12)OC(C)(C)C=C4)O[C@@H](C)C[C@@H]3O (relative stereo) [Compound 22] | – | – | IC50 [1, 7]: 1.78 µM
3 | CCCc1cc(=O)oc2c3c(c4c(c12)OC(C)(C)C=C4)O[C@@H](C)C[C@H]3O (relative stereo) [Compound 23] | – | – | IC50 [1, 7]: 0.6 µM
4 | CCCc1cc(=O)oc2c3c(c4c(c12)OC(C)(C)C=C4)O[C@H](C)[C@@H](C)[C@@H]3O [Calanolide A] | – | – | inhibition of HIV-1 RT (in words) [2]: potent inhibitor
5 | C/C=C(\C)C(=O)c1c(OC)c2c(c3c(-c4ccccc4)cc(=O)oc13)OC(C)(C)C=C2 [Calophyllolide] | > 50 | 4.5 | –
6 | C[C@@H]1[C@H](O)c2c(c3c(c4c(-c5ccccc5)cc(=O)oc24)OC(C)(C)C=C3)O[C@@H]1C [Inophyllum A] | 9 | 33 | –
7 | C[C@H]1[C@H](O)c2c(c3c(c4c(-c5ccccc5)cc(=O)oc24)OC(C)(C)C=C3)O[C@@H]1C [Inophyllum B] | 0.3 | 55 | activity in the RT-ase assay (in words) [1]: sub-micromolar activity; inhibition of mutant HIV RT relative to wild-type (in words) [4]: potency comparable to that observed with wild-type HIV RT; inhibition of mutant HIV RT relative to wild-type (in words) [5]: potency comparable to that observed with wild-type HIV RT; IC50 [6, 9]: 1.4 µM; Selective Index (Cytotoxycity/IC50 ratio) [6]: 39
8 | C[C@H]1Oc2c3c(c4c(-c5ccccc5)cc(=O)oc4c2C(=O)[C@@H]1C)OC(C)(C)C=C3 [Inophyllum C] | > 50 | 18 | –
9 | C[C@H]1[C@@H](C)Oc2c3c(c4c(-c5ccccc5)cc(=O)oc4c2[C@@H]1O)OC(C)(C)C=C3 [Inophyllum D] | 30 | 15 | –
10 | C[C@@H]1C(=O)c2c(c3c(c4c(-c5ccccc5)cc(=O)oc24)OC(C)(C)C=C3)O[C@@H]1C [Inophyllum E] | > 50 | 6.2 | –
11 | C[C@@H]1[C@H](O)c2c(c3c(c4c(-c5ccccc5)cc(=O)oc24)O[C@@H]2[C@H]3C2(C)C)O[C@@H]1C [Inophyllum G1] | > 50 | – | –
12 | C[C@@H]1[C@H](O)c2c(c3c(c4c(-c5ccccc5)cc(=O)oc24)O[C@H]2[C@@H]3C2(C)C)O[C@@H]1C [Inophyllum G2] | > 50 | – | –
13 | C[C@@H]1[C@@H](C)Oc2c3c(c4c(-c5ccccc5)cc(=O)oc4c2[C@@H]1O)OC(C)(C)C=C3 [Inophyllum P] | 0.6 | 25 | activity in the RT-ase assay (in words) [1]: sub-micromolar activity; inhibition of mutant HIV RT relative to wild-type (in words) [4]: potency comparable to that observed with wild-type HIV RT; inhibition of mutant HIV RT relative to wild-type (in words) [5]: potency comparable to that observed with wild-type HIV RT; IC50 [6, 9]: 1.6 µM; Selective Index (Cytotoxycity/IC50 ratio) [6]: 16
14 | tetrahydro-imidazo[4,5,1-jk][1,4]-benzodiazepin-2-(1H)-one and -thione [TIBO, reference compound] | – | – | IC50 ([6]; Molt4 cells, harvest 7 days post infection): 0.19 µM; Selective Index (Cytotoxycity/IC50 ratio) [6]: 100
